What follows are substances tested against T1, Porcine Intrinsic Factor (Sus scrofa, UniProt A0A8D1ENZ1) (assay: Relative IF affinity of 5'O-VB12 derivatives (57CoVB12 competition, BSA-coated charcoal separation)). Details: inhibition of 57CoVB12 binding to porcine IF compared to unmodified VB12; 20 minutes at room temperature, pH 7.5.
T1 construct: purchased Sigma
Method: Determination of the relative IF affinity of various 5'O-VB12 derivatives.
IF Buffer: BSA (VB12 and IF deficient) BSA (Sigma A-3902) was dissolved at 1 mg/ml in 0.1M potassium phosphate buffer pH 7.5.
^57 CoVB12 : ^57 Co stock (50 μl) (Kodak) was diluted into 50 ul of stock in 25 ml of IF buffer to give a solution of 1 ng ^57 CoVB12 /25 ml. 250 ng cold VB12 was added to 25 ml of hot ^57 CoVB12 solution to give a 10 ng/ml solution.
Porcine Intrinsic Factor: Porcine IF (Sigma) was dissolved in IF buffer at 200 Units/ml, and frozen in 500 ul lots (100 IU aliquots) until required.
BSA-coated charcoal: BSA (1%) was added to an equal volume of 5% charcoal solution of 0.1 M potassium phosphate buffer pH 7.5 and stirred gently for 30 minutes.
Ten fold up dilutions of VB12 or VB12 derivatives were prepared down to 1 ng/ml in IF buffer. An equal volume of diluted IF was added to each sample and incubated for 20 minutes at room temperature. An equal volume of the BSA-coated charcoal was added to each sample, which was mixed prior to centrifugation. Following centrifugation the supernatant and pellet of each sample were separated and ^57 CoVB12 determined by counting in a gamma counter. Data is represented as the % inhibition of ^57 CoVB2 binding when compared to unmodified VB12.

T1 sequence (A0A8D1ENZ1 29-425): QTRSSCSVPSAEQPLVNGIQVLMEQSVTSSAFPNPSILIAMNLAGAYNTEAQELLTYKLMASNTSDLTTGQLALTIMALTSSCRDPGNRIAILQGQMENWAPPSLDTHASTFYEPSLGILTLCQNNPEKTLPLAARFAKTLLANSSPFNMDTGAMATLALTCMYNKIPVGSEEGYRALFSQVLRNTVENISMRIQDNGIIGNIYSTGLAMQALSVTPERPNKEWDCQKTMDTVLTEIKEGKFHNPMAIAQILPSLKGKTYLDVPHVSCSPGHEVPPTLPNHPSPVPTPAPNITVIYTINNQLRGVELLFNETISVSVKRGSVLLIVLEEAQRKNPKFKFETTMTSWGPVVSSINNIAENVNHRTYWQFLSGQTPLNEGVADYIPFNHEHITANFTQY

Substance | % binding relative to vitamin B12 [%]
5'OH-(aminohexyl)-VB12 [aminohexyl-5'O-VB12] | 25
5'OH-(adipylhydrazidyl)-VB12 [adiphylhydrazidyl-5'O-VB12] | 29
5'OH-(aminobutyl)-VB12 [aminobutyl-5'O-VB12] | 27
5'OH-(aminododecanyl)-VB12 [aminododecanyl-5'O-VB12] | 31
5'OH-(aminoethyl)-VB12 [aminoethyl-5'O-VB12] | 40
VB12 -glycine acid [HO-Gly-5'O-VB12] | 25

Second part, the substance after the results:

% binding relative to vitamin B12 [%] | Substance
0.78 | 5'OH-(hexadecyl)-VB12 [hexadecy-5'O-VB12]
4.2 | 5'OH-(tetradecyl)-VB12 [tetradecyl-5'O-VB12]
0.57 | 5'OH-(octadecyl)-VB12 [octadecyl-5'O-VB12]
35 | 5'OH-(dodecyl)-VB12 [dodecyl-5'O-VB12]
49 | 5'OH-(hexyl)-VB12 [hexyl-5'O-VB12]
37 | 5'OH-(succinylhydrazidyl)-VB12 [succinylhydrazidyl-5'O-VB12]

Reference: US6150341A, “Vitamin B12 derivatives and methods for their preparation” (Biotch Australia Pty Limited, priority 1998, dated 2000)
